Experimental data as given in ChEMBL document CHEMBL1132542, “Vasorelaxation by new hybrid compounds containing dihydropyridine and pinacidil-like moieties” (J Med Chem, 1999).

Tests used:
Rattus norvegicus [1] = species on record: Rattus norvegicus; assay: Vasorelaxation activity in rat mesenteric arteries after contractile stimulus(K+ depolarization).
Rattus norvegicus [2] = species on record: Rattus norvegicus; assay: Vasorelaxation activity in rat mesenteric arteries after contractile stimulus(K+ depolarization)
[3] = Inhibition of [3H]P1075 binding to ATP-sensitive potassium channels of rat cardiac membranes; type: cell membranes, Membrane
[4] = biological target: T1, Voltage-dependent L-type calcium channel subunit alpha-1C (Homo sapiens, UniProt Q13936); assay: Inhibition of VGCC alpha-1C-b expressed in CHO cells -30 mV holding potential, peak Ba2+ current, at 10e-4 M; type: functional, cell-based
T1 sequence (Q13936 whole entry): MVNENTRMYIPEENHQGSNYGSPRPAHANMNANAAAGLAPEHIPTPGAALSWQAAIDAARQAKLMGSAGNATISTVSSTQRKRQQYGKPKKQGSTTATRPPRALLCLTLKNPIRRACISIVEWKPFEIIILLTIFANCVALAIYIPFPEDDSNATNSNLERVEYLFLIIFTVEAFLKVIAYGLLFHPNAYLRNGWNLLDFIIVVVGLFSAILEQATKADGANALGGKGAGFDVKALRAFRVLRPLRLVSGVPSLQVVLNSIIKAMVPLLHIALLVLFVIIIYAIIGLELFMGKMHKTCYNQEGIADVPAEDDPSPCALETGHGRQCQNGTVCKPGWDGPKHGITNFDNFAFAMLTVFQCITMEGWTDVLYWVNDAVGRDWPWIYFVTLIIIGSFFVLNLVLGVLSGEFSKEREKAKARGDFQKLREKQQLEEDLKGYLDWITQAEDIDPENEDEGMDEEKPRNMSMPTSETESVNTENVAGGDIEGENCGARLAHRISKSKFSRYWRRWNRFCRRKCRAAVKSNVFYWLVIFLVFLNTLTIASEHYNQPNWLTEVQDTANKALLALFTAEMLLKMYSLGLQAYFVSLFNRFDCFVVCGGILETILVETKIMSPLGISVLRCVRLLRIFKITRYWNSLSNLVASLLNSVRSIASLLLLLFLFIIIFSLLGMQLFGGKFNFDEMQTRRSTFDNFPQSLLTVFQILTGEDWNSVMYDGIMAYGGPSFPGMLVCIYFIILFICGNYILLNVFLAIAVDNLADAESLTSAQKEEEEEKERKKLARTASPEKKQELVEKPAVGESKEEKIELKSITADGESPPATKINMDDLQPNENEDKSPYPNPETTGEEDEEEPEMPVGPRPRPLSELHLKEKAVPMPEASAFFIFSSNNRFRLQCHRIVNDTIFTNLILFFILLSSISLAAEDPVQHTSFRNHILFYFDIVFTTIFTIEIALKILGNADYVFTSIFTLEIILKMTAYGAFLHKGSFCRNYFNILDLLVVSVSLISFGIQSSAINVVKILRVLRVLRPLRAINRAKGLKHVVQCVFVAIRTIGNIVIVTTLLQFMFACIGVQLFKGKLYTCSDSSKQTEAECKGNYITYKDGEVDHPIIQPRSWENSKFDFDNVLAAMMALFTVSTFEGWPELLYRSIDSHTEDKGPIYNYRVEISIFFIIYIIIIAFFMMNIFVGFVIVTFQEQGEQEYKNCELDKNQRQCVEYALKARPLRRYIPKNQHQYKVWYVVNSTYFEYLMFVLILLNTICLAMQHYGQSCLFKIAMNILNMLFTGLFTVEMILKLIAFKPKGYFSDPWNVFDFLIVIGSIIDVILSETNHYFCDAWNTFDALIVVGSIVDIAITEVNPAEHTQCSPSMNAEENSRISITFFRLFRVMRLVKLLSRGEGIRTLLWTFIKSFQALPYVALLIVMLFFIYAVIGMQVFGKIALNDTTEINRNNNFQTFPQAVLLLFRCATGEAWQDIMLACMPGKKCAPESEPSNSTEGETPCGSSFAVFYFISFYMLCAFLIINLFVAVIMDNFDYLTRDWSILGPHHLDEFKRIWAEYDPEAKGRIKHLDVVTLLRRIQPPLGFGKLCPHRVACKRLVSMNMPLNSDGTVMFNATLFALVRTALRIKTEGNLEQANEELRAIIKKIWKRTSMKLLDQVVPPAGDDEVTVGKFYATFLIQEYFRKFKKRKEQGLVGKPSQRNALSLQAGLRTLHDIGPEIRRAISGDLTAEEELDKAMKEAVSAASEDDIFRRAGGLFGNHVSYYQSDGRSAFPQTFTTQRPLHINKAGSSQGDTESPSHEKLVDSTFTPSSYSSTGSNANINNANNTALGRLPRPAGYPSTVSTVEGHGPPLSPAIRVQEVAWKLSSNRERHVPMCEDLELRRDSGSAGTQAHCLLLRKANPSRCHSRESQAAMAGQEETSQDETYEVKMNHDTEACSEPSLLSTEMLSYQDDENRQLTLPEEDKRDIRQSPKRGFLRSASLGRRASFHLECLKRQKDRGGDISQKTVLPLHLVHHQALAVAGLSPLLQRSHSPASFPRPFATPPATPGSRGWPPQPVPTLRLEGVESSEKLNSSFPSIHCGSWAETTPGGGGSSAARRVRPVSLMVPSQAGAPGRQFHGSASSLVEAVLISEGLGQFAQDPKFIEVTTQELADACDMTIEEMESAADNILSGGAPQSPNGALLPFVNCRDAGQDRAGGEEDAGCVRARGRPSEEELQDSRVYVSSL

[5] = biological target: T1, Voltage-dependent L-type calcium channel subunit alpha-1C; assay: Inhibition of VGCC alpha-1C-b expressed in CHO cells -80 mV holding potential, peak Ba2+ current, at 10e-5 M; type: functional, cell-based; conditions: hamster
[6] = Vasorelaxation in rat mesenteric arteries after contractile stimulus (norepinephrine+glibenclamide); type: functional
Rattus norvegicus [7] = species on record: Rattus norvegicus; assay: Vasorelaxation activity in rat mesenteric arteries after contractile stimulus (norepinephrine)
[8] = biological target: T1, Voltage-dependent L-type calcium channel subunit alpha-1C; assay: Inhibition of VGCC alpha-1C-b expressed in CHO cells -30 mV holding potential, peak Ba2+ current, at 10e-5 M; type: functional, cell-based
[9] = biological target: T1, Voltage-dependent L-type calcium channel subunit alpha-1C; assay: Inhibition of VGCC alpha-1C-b expressed in CHO cells -80 mV holding potential, peak Ba2+ current, at 10e-4 M; type: functional, cell-based
[10] = biological target: T1, Voltage-dependent L-type calcium channel subunit alpha-1C; assay: Inhibition of VGCC alpha-1C-b expressed in CHO cells -30 mV holding potential, peak Ba2+ current, at 10e-6 M; type: functional, cell-based
[11] = biological target: T1, Voltage-dependent L-type calcium channel subunit alpha-1C; assay: Inhibition of VGCC alpha-1C-b expressed in CHO cells -80 mV holding potential, peak Ba2+ current, at 10e-6 M; type: functional, cell-based

Structure (SMILES)	EC50 (Rattus norvegicus [1])	EC50 (Rattus norvegicus [2])	pIC50 [3]	Peak current [4]	Peak current [5]	Log EC50 [6]	EC50 (Rattus norvegicus [7])	Peak current [8]	Peak current [9]	Peak current [10]	Peak current [11]
CO/C(O)=C1\C(C)=NC(C)=C(C#N)C1c1cc(N/C(=N/C(C)C(C)(C)C)NC#N)ccc1OC(F)F (stereo not drawn)	2340 nM	–	–	–	–	–	–	–	–	–	–
CCOC(=O)C1=C(C)N=C(C)/C(=C(/O)OCC)C1c1cc(N/C(=N/C(C)C(C)(C)C)NC#N)ccc1OC(F)F (stereo not drawn)	–	955 nM	–	–	–	–	–	–	–	–	–
CC(/N=C(\NC#N)Nc1ccc(OC(F)F)cc1)C(C)(C)C (stereo not drawn)	–	7410 nM	8.7	2.4%	58.2%	-6.12	288 nM	10.8%	26.7%	–	–
COC(=O)C1=C(C)N=C(C)/C(=C(/O)OC)C1c1cc(N/C(=N/C(C)C(C)(C)C)NC#N)ccc1OC(F)F (stereo not drawn)	–	372 nM	6.2	–	38.2%	-6.2	200 nM	2.5%	–	9.2%	60.4%
